Reference: patent US20110257220A1, “3,11 b-cis-Dihydrotetrabenazine for the Treatment of Schizophrenia and Other Psychoses” (CAMBRIDGE LABORATORIES (IRELAND) LIMITED, priority 2005, published 2011)
“Also recorded” adds a separate entry of the source.

Key:
[1] = molecular target: T1, Adrenergic α2A Receptor (Homo sapiens, UniProt P08913); assay: Adrenergic α2A receptor radioligand binding ([3H] MK-912); details: 10 μM solution; for inhibition at 10 µM: read-out: Percentage Inhibition of Specific Binding, α2A Receptor
T1 construct: expressed in transfected cells; host or cells: insect Sf9 cells
T1 sequence (P08913 1-465): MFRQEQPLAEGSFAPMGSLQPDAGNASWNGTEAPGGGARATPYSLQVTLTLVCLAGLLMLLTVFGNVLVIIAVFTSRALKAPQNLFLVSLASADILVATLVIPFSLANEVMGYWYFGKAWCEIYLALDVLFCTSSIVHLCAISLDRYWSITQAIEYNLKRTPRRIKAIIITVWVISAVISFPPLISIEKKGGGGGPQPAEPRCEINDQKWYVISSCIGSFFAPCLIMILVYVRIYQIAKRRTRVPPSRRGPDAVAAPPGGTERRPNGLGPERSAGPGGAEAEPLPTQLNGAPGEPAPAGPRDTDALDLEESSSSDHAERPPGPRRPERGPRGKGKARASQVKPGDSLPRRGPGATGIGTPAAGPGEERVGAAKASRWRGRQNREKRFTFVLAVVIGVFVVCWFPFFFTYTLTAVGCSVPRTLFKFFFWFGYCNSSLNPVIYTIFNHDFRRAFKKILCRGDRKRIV
Description: (§1) The four dihydrotetrabenazine isomers A, B, C and D were subjected to specific binding assays to test their ability to bind to the receptors and transporter proteins described below. The results are set out in Table 5
(a) Adrenergic α2A Receptor:
• Reference: S. Uhlen et al. J. Pharmacol. Exp. Ther., 271:1558-1565 (1994) • Source: Human recombinant insect Sf9 cells • Ligand: 1 nM [^3H]

[2] = molecular target: T2, Adrenergic α2B Receptor (Homo sapiens, UniProt P18089); assay: Adrenergic α2B receptor radioligand binding ([3H] Rauwolscine); details: 10 μM solution; for inhibition at 10 µM: read-out: Percentage Inhibition of Specific Binding, α2B Receptor
T2 construct: expressed in transfected cells; host or cells: CHO-K1 cells
T2 sequence (P18089 1-450): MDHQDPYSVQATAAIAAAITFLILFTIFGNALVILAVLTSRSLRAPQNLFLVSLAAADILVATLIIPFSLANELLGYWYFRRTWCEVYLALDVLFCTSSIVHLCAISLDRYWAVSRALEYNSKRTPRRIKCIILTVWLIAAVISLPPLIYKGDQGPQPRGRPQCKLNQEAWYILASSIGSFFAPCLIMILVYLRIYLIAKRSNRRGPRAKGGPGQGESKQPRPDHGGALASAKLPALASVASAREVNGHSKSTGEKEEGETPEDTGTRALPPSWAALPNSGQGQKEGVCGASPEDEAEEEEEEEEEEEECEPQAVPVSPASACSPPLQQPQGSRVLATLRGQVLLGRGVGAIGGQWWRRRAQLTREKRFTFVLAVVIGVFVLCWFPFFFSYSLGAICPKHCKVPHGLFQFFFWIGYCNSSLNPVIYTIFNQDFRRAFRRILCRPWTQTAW
Description: as §1
(b) Adrenergic α2B Receptor:
• Reference: S. Uhlen et al., Eur. I Pharmacol., 33 (1): 93-1-1 (1998) • Source: Human recombinant CHO-K1 cells • Ligand: 2.5 nM [3H]

[3] = test system: female hooded-Lister rats; assay: Novel object recognition (NOR) task, sub-chronic PCP-induced cognitive deficit; assay type: in vivo, rat
Excerpt: Certain pre-clinical tests allow the observation of relatively subtle cognitive deficits in the rat that resemble cognitive symptoms in subjects with schizophrenia. The cognitive deficits observed are seen in behaviours such as working memory deficits which may be measured by recognition tasks such as the novel object recognition (NOR) paradigm. A recognition memory task allows the comparison between presented stimuli and previously stored information. Ennaceur & Delacour, Behav. Brain Res. 31: 47-59 (1988) described the NOR test in rats which was based on the differential exploration of familiar and new objects. The NOR test is a non-rewarded, ethologically relevant paradigm based on the spontaneous exploratory behaviour of rats which measures working memory. Each session consists of two trials. In the first trial, the rats are exposed to two identical objects in an open field. During the second trial, rats are exposed to two dissimilar objects, one familiar object from the first trial and one new object. Object recognition in rats can be measured as the difference in time spent exploring the familiar and the new object.
The abovementioned rodent model was used to assess the effects of the Isomer A on sub-chronic PCP-induced deficits in working memory using the novel object recognition (NOR) paradigm. The working hypothesis was that both acute and sub-chronic treatment with Isomer A will attenuate the selective working memory deficit induced by sub-chronic PCP as measured in the NOR test paradigm.
Rats are allowed to habituate to the empty test box and the behavioural test room environment for 1 hour on day 1. Prior to behavioural testing on day 2 rats are given a further 3 minutes habituation.
Following the 3 minute habituation period, the rats are given two 3 minute trials (T1 and T2) which are separated by a 1 minute inter-trial interval in the home cage during which the objects are changed.
In this trial, the animals are allowed to explore two identical objects (A1 and A2) for 3 minutes.
In this trial, the animals explore a familiar object (A) from T1 and a novel object (B) for 3 minutes. The familiar object presented during T2 is a duplicate of the object presented in T1 in order to avoid any olfactory trails.
The object exploration is defined by animals licking, sniffing or touching the object with the forepaws whilst sniffing, but not leaning against, turning around, standing or sitting on the object. The exploration time (s) of each object (A1, A2, A and B) in each trial are recorded using two stopwatches and the following factors are calculated: • Total exploration time of both objects in the acquisition trial (s). • Total exploration time of both objects in the retention trial (s). • Habituation of exploratory activity. The LMA includes the exploration time, as measured by the number of lines crossed, for both the trials. • Discrimination index, which is calculated as shown below;
(time spent exploring novel object−time spent exploring familiar object)÷total time spent in exploring the objects
Behaviour in all trials was recorded on video for subsequent blind scoring.
50 female hooded-Lister rats (Harlan, UK) were used as subjects for these studies. Rats were housed in groups of 5 under standard laboratory conditions under a 12 hr light:dark cycle, lights on at 0700 hr. All testing was carried out in the light phase. Food and water were freely provided. […]

Structure (SMILES)	inhibition at 10 µM [1] [%]	inhibition at 10 µM [2] [%]	Sedation (observation of behaviour) ([3]; 30 mg/kg Isomer A p.o., rats in NOR arena)	Locomotor activity in the test arena (number of lines crossed, T1+T2) ([3]; 30 mg/kg Isomer A p.o., sub-chronic PCP rats, FIG. 4)	Attenuation of sub-chronic PCP-induced deficit, retention phase (exploration time of familiar vs novel object) ([3]; Isomer A 3-30 mg/kg p.o. acute, 30 min before test, sub-chronic PCP 2 mg/kg i.p. twice daily 7 days, FIG. 2)	Exploration of two identical objects in the acquisition phase (T1) ([3]; Isomer A 3-30 mg/kg p.o., sub-chronic PCP rats, FIG. 1)	Percentage Inhibition of Specific Binding, α2A Receptor [1] [%]	Percentage Inhibition of Specific Binding, α2B Receptor [2] [%]
COc1cc2c(cc1OC)[C@@H]1C[C@@H](O)[C@H](CC(C)C)CN1CC2 (single isomer, unassigned) [Isomer A]	86	44	did not appear sedated	significant effect to reduce locomotor activity	has efficacy to attenuate the sub-chronic PCP-induced deficit; also recorded: significant at the highest dose	no effect		
COc1cc2c(cc1OC)[C@H]1C[C@H](O)[C@@H](CC(C)C)CN1CC2 (single isomer, unassigned) [Isomer B]	12	14						
COc1cc2c(cc1OC)C1CC(O)C(CC(C)C)CN1CC2 (single isomer, unassigned) [Isomer C]	13	-7						
COc1cc2c(cc1OC)[C@H]1C[C@@H](O)[C@H](CC(C)C)CN1CC2 (single isomer, unassigned; isomer d) [Isomer D]							87	50
